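Briefly, cells in 96-well plates were exposed to five compound concentrations for 48 h, and endpoints were estimated by linear interpolation. Here, GI50 denotes the concentration required for 50% inhibition of growth.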 Calls of active or inactive are those of the source. Cut-off read from the data, not from the text of the source: active = GI50 up to about 1.1 µM and inactive = higher.
Key:
Experiment in all cases: NCI tumour cell line growth inhibition, 48 h
[1] = tested on: NCI-H226
[2] = tested on: K562
[3] = tested on: SF-295
[4] = tested on: SR
[5] = tested on: NCI/ADR-RES
[6] = tested on: HOP-62
[7] = tested on: OVCAR-3
[8] = tested on: EKVX
[9] = tested on: UACC-62
[10] = tested on: HL-60
[11] = tested on: SK-MEL-28
[12] = tested on: HCT-15
[13] = tested on: ACHN
[14] = tested on: TK-10
[15] = tested on: SK-MEL-5
[16] = tested on: OVCAR-5
[17] = tested on: HCC 2998
[18] = tested on: 786-0
[19] = tested on: DU-145
[20] = tested on: Malme-3M

| SMILES | GI50 [1] | GI50 [2] | GI50 [3] | GI50 [4] | GI50 [5] | GI50 [6] | GI50 [7] | GI50 [8] | GI50 [9] | GI50 [10] | GI50 [11] | GI50 [12] [µM] | GI50 [13] | GI50 [14] | GI50 [15] | GI50 [16] | GI50 [17] | GI50 [18] | GI50 [19] | GI50 [20] |
| --- | --- | --- | --- | --- | --- | --- | --- | --- | --- | --- | --- | --- | --- | --- | --- | --- | --- | --- | --- | --- |
| Cc1cccc2c(=O)c3c(O)cc4c(c3n(C)c12)C=CC(C)(C)O4 | 29.5 µM (inactive) | 11.2 µM (inactive) | 25.1 µM (inactive) | 10.4 µM (inactive) | 31.8 µM (inactive) | > 100 µM (inactive) | > 100 µM (inactive) | 25.6 µM (inactive) | > 100 µM (inactive) | 45.7 µM (inactive) | > 100 µM (inactive) | 18.7 | > 100 µM (inactive) | > 100 µM (inactive) | 29.9 µM (inactive) | 59.3 µM (inactive) | > 100 µM (inactive) | 71.8 µM (inactive) | > 100 µM (inactive) | > 100 µM (inactive) |
| CCOP(=O)(OCC)C(Nc1ccc(Br)cc1)c1cccc([N+](=O)[O-])c1 (stereo not given) | 16.7 µM (inactive) | 12 µM (inactive) | 12.9 µM (inactive) | 18.1 µM (inactive) | 13.5 µM (inactive) | 17.5 µM (inactive) | 16.2 µM (inactive) | 2.99 µM (inactive) | 14.7 µM (inactive) | 20 µM (inactive) | 15.2 µM (inactive) | 14.5 | 18.3 µM (inactive) | 30.5 µM (inactive) | 14.6 µM (inactive) | 24.1 µM (inactive) | 17.5 µM (inactive) | 20.4 µM (inactive) | 32.8 µM (inactive) | 18.2 µM (inactive) |
| O=C(Cn1ccnc1[N+](=O)[O-])NCCO [ETANIDAZOLE] | > 100 µM (inactive) | > 100 µM (inactive) | > 100 µM (inactive) | > 100 µM (inactive) | > 100 µM (inactive) | > 100 µM (inactive) | > 100 µM (inactive) | > 100 µM (inactive) | > 100 µM (inactive) | > 100 µM (inactive) | > 100 µM (inactive) | > 100 | > 100 µM (inactive) | > 100 µM (inactive) | > 100 µM (inactive) | > 100 µM (inactive) | 41.8 µM (inactive) | > 100 µM (inactive) | > 100 µM (inactive) | > 100 µM (inactive) |
